Reference: patent US8415469B2, “Compounds and methods for kinase modulation, and indications therefor” (Plexxikon Inc., priority 2005, dated 2013)
pIC50: −log10 of the molar value.

Tests used:
Assay type in all cases: biochemical
MAPKAPK2 = target: T1, MAPKAPK2 (Homo sapiens, UniProt P49137); assay: Z'-Lyte FRET kinase assay (Invitrogen), MAPKAPK2; settings: read-out: IC50, activity toward kinase MAPKAPK2
T1 construct: purchased Invitrogen (assay run by Invitrogen)
Text: The effect of potential modulators of kinase activity can be measured in a variety of different assays known in the art. For example, direct radiometric, indirect FRET or AlphaScreen assays may be used to assess the level of phosphorylation of a substrate in the presence of test compounds in order to determine the inhibitory affect of the compound on the kinase. Invitrogen (Carlsbad, Calif.) uses a FRET based assay for Btk, EGFR, EphB2, Flt3, lrak4, Kdr, MAP2K1, MAPKAPK2, PDGFRB, PKC theta, Stk6 and Yes. For these assays, compounds of the invention were screened by Invitrogen using Z′-Lyte™ kinase assay.
Briefly, the Invitrogen kinase assay involves use of a specific peptide substrate optimized for each kinase, containing a fluorophore at each end that make up the FRET pair. The peptide sensitivity to proteolytic cleavage depends on phosphorylation of the peptide. Non-phosphorylated peptide is cleaved by a protease while peptide phosphorylated by the kinase is not cleaved. Cleavage of the peptide disrupts the FRET between the donor (coumarin) and acceptor (fluorescein) fluorophores, resulting in an increase in the ratio of donor emission to acceptor emission. The emission ratio of coumarin to fluorescein is used to assess the reaction progress. The extent of phosphorylation is determined from the emission ratio, which is low when the kinase is active (phosphorylated peptide is not cleaved, FRET pair connected) or higher for inhibited kinase (non-phosphorylated peptide is cleaved, FRET pair separated). Thus, the assay involves a kinase reaction in the presence of varying concentrations of a given compound, a development reaction with site specific protease, and detection of the fluorescent emission ratio of coumarin and fluorscein. […] Reaction conditions for each kinase are determined to provide optimal reaction times, incubation temperature, kinase and ATP concentrations. Test samples are made up in 1× kinase buffer (50 mM HEPES pH 7.5, 50 mM MgCl2, 5 mM EGTA, 0.05% BRIJ-35) and compound at desired concentration prepared in DMSO such that the final DMSO is 1%. […] Typically, assay plates are prepared to 10 μl final volume per sample, adding 2.5 μl of compound at 4× the desired concentration in 4% DMSO (serial dilution of compound provides concentration curve), 5 μl of the desired kinase mixed with Z′-LYTE™ peptide substrate (2× in 2× kinase buffer, final peptide at 2 μM), and 2.5 μl of 4×ATP solution. All kinase except for MAP2K1 were at 10 μM ATP in the kinase reaction, while MAP2K1 was at 100 μM. Samples are mixed and the kinase reaction is incubated 1 hour at room temperature, after which 5 μl of development solution is added and mixed. After incubation for another 1 hour at room temperature, 5 μl of stop reagent is added to each sample and mixed. The fluorescence signals are measured to determine the emission ratio.

Kdr = target: T2, Kdr (Homo sapiens, UniProt P35968); assay: Z'-Lyte FRET kinase assay (Invitrogen), Kdr; settings: read-out: IC50, activity toward kinase Kdr
T2 construct: purchased Invitrogen (assay run by Invitrogen)
T2 sequence (P35968 20-1356): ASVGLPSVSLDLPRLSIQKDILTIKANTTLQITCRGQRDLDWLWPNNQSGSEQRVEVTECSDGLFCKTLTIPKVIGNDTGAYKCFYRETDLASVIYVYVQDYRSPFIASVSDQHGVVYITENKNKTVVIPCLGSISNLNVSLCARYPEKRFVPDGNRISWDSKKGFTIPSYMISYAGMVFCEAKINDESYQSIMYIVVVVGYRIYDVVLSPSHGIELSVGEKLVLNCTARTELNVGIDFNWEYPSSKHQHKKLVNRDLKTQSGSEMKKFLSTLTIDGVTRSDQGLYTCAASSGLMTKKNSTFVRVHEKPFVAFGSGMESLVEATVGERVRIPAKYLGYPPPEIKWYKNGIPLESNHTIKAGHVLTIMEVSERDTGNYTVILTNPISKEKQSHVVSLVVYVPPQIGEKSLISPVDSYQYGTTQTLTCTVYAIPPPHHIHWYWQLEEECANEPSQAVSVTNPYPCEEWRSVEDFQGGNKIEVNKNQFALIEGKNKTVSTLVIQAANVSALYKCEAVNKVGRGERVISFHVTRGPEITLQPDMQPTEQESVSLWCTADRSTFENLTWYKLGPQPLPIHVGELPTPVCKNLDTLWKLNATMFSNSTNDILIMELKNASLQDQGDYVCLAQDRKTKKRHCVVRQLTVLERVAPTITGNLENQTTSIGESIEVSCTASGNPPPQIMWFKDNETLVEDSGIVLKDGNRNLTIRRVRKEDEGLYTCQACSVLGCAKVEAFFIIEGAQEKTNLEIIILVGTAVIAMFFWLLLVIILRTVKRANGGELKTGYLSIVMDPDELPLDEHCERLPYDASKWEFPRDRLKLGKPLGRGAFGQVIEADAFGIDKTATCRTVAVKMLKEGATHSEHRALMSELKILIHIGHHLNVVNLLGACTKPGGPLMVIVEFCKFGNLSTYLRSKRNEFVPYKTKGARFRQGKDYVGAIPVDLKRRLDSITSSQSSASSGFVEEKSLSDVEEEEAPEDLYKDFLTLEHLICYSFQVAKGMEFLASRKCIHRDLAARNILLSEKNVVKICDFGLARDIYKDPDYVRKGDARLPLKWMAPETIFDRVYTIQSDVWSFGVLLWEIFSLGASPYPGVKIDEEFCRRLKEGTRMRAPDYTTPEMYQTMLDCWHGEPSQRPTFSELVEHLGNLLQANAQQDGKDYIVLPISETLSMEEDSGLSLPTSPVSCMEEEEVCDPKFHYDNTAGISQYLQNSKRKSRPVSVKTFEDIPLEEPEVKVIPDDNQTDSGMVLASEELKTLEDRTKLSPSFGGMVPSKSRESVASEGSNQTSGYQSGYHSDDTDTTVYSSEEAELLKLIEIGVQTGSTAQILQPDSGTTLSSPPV

Syk = Syk (Homo sapiens, UniProt P43405); assay: AlphaScreen kinase assay, Syk; settings: read-out: IC50, activity toward kinase Syk
Text: (§1) AlphaScreen assay was used to screen additional kinases. The assay is similarly dependent on the phosphorylation of a peptide substrate. In this assay, an antibody that recognizes phosphorylated substrate is bound to an acceptor bead. The peptide substrate is attached to biotin, which binds to a donor head that contains streptavidin. Thus phosphorylated substrate is bound by antibody and streptavidin, bringing the donor and acceptor heads into close proximity when kinase is not inhibited. The donor produces singlet oxygen which results in emission from the acceptor when they are in close proximity. Conversely, when kinase is inhibited, the donor and acceptor beads are not associated and the emission from the acceptor is reduced.
(§2) AlphaScreen assays were done using compounds dissolved in DMSO to a concentration of 20 mM. The compounds were diluted accordingly to the desired final concentrations in each sample well, using 1:3 serial dilution for a total of 8 concentration points.

PKC theta = target: T3, PKC theta (Homo sapiens, UniProt Q04759); assay: Z'-Lyte FRET kinase assay (Invitrogen), PKC theta; settings: read-out: IC50, activity toward kinase PKC theta
T3 construct: purchased Invitrogen (Carlsbad, Calif.), screening service
T3 sequence (Q04759 whole entry): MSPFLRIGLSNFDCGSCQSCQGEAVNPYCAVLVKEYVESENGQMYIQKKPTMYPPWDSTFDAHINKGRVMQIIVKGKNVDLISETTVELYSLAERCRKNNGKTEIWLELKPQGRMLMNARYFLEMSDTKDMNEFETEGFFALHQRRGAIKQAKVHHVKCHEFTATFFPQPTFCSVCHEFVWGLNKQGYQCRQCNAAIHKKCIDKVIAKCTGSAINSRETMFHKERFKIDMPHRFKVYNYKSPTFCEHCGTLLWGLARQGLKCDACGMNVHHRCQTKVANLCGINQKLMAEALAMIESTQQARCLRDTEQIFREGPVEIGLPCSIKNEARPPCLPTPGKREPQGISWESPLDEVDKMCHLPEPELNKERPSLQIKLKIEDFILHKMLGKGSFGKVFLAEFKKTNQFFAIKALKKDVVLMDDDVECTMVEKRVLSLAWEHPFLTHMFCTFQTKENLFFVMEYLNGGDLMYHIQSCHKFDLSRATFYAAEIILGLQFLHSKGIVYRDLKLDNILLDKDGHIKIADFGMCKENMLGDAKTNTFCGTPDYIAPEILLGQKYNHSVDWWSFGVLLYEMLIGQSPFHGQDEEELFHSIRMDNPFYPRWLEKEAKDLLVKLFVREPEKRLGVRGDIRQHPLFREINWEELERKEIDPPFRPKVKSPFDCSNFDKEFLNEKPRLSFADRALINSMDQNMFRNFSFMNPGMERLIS
Procedure, shortened: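 Serially diluted compound (final 1% DMSO) incubated 1 h at room temperature with kinase, 2 μM FRET peptide and 10 μM ATP in pH 7.5 HEPES buffer. Site-specific protease then cleaves unphosphorylated peptide (1 h); inhibition read as increased coumarin-to-fluorescein emission ratio.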

MAP4K4 = MAP4K4 (Homo sapiens, UniProt O95819); assay: AlphaScreen kinase assay, MAP4K4; settings: read-out: IC50, activity toward kinase MAP4K4
MAP2K1 = target: T4, MAP2K1 (Homo sapiens, UniProt Q02750); assay: Z'-Lyte FRET kinase assay (Invitrogen), MAP2K1; settings: read-out: IC50, activity toward kinase MAP2K1
T4 construct: purchased Invitrogen (assay run by Invitrogen)
Text: For example, direct radiometric, indirect FRET or AlphaScreen assays may be used to assess the level of phosphorylation of a substrate in the presence of test compounds in order to determine the inhibitory affect of the compound on the kinase. […] For these assays, compounds of the invention were screened by Invitrogen using Z′-Lyte™ kinase assay.
Briefly, the Invitrogen kinase assay involves use of a specific peptide substrate optimized for each kinase, containing a fluorophore at each end that make up the FRET pair. The peptide sensitivity to proteolytic cleavage depends on phosphorylation of the peptide. Non-phosphorylated peptide is cleaved by a protease while peptide phosphorylated by the kinase is not cleaved. Cleavage of the peptide disrupts the FRET between the donor (coumarin) and acceptor (fluorescein) fluorophores, resulting in an increase in the ratio of donor emission to acceptor emission. The emission ratio of coumarin to fluorescein is used to assess the reaction progress. […] Thus, the assay involves a kinase reaction in the presence of varying concentrations of a given compound, a development reaction with site specific protease, and detection of the fluorescent emission ratio of coumarin and fluorscein. […] Reaction conditions for each kinase are determined to provide optimal reaction times, incubation temperature, kinase and ATP concentrations. Test samples are made up in 1× kinase buffer (50 mM HEPES pH 7.5, 50 mM MgCl2, 5 mM EGTA, 0.05% BRIJ-35) and compound at desired concentration prepared in DMSO such that the final DMSO is 1%. […] All kinase except for MAP2K1 were at 10 μM ATP in the kinase reaction, while MAP2K1 was at 100 μM. Samples are mixed and the kinase reaction is incubated 1 hour at room temperature, after which 5 μl of development solution is added and mixed. After incubation for another 1 hour at room temperature, 5 μl of stop reagent is added to each sample and mixed. The fluorescence signals are measured to determine the emission ratio.

ROCK1 = ROCK1 (Homo sapiens, UniProt Q13464); assay: AlphaScreen kinase assay, ROCK1; settings: read-out: IC50, activity toward kinase ROCK1
Sequence of ROCK1 (Q13464 whole entry): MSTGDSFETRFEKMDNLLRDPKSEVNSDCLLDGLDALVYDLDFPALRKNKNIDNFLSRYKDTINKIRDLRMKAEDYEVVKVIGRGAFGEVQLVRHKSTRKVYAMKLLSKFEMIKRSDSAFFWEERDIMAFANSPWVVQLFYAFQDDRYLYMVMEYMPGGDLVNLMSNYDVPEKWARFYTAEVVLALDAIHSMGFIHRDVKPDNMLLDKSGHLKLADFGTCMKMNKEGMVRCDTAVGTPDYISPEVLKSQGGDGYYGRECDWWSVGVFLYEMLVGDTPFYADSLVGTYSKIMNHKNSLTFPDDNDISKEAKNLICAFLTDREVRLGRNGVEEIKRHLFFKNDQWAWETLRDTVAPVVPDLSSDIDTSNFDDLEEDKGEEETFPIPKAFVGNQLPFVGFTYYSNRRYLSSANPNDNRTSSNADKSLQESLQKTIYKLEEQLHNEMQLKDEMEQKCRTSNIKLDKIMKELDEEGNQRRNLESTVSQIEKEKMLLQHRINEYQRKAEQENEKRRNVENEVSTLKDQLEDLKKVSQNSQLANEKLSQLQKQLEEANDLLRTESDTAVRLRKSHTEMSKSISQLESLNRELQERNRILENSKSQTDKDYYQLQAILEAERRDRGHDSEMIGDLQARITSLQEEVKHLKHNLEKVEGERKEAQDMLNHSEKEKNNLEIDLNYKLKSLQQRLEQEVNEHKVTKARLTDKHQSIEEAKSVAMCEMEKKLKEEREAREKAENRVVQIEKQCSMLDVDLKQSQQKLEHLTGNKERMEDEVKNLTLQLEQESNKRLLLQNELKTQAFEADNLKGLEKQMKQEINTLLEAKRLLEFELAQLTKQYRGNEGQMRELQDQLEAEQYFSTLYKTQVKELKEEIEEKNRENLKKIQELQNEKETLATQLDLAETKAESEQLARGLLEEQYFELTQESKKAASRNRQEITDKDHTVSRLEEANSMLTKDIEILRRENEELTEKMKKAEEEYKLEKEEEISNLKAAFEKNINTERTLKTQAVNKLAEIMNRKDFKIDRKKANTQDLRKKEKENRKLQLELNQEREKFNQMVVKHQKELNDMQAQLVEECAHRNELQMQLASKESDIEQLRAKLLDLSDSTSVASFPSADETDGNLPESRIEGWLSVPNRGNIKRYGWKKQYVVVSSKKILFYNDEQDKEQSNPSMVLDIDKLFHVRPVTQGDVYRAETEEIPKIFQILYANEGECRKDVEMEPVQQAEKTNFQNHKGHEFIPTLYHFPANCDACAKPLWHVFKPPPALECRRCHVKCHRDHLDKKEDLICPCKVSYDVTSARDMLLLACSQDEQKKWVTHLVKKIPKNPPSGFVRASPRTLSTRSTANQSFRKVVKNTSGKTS
Text: as §1, §2

Akt3 = Akt3 (Homo sapiens, UniProt Q9Y243); assay: AlphaScreen kinase assay, Akt3; settings: read-out: IC50, activity toward kinase Akt3
Sequence of Akt3 (Q9Y243 whole entry): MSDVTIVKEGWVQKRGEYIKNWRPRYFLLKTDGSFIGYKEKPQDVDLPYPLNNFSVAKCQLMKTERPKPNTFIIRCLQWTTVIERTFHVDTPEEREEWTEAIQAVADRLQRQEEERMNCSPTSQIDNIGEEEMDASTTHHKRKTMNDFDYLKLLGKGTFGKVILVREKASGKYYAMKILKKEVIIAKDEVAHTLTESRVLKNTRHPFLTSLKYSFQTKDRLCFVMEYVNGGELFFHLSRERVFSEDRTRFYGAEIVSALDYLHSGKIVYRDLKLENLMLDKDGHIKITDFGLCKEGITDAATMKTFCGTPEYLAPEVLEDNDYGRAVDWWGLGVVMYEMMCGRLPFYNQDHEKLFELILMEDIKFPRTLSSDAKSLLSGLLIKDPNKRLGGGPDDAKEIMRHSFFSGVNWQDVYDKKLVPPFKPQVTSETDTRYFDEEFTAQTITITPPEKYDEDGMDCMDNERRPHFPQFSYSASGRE
Procedure, shortened: (§3)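 Emission from acceptor beads reports phosphorylated biotin-peptide bridging antibody-coated acceptor and streptavidin donor beads; loss of signal reflects kinase inhibition. Eight-point, threefold dilution series prepared from 20 mM DMSO stocks.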

Gsk3β = Gsk3β (Homo sapiens, UniProt P49841); assay: AlphaScreen kinase assay, Gsk3β; settings: read-out: IC50, activity toward kinase Gsk3β
Sequence of Gsk3β (P49841 whole entry): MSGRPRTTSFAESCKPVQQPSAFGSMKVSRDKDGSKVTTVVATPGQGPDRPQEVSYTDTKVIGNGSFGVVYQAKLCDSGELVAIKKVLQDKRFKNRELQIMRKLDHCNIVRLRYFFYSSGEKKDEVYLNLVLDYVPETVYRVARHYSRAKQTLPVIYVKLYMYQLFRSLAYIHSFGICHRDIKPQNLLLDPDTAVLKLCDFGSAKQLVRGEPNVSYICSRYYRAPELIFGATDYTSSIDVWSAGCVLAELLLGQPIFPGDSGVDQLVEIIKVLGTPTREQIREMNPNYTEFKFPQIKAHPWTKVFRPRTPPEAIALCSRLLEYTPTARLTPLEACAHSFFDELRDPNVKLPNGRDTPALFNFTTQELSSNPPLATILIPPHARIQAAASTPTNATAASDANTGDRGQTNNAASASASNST
Procedure, shortened: as §3

IKK beta = target: T5, IKK beta (Homo sapiens, UniProt O14920); assay: AlphaScreen kinase assay, IKK beta; settings: read-out: IC50, activity toward kinase IKK beta
T5 sequence (O14920 1-756): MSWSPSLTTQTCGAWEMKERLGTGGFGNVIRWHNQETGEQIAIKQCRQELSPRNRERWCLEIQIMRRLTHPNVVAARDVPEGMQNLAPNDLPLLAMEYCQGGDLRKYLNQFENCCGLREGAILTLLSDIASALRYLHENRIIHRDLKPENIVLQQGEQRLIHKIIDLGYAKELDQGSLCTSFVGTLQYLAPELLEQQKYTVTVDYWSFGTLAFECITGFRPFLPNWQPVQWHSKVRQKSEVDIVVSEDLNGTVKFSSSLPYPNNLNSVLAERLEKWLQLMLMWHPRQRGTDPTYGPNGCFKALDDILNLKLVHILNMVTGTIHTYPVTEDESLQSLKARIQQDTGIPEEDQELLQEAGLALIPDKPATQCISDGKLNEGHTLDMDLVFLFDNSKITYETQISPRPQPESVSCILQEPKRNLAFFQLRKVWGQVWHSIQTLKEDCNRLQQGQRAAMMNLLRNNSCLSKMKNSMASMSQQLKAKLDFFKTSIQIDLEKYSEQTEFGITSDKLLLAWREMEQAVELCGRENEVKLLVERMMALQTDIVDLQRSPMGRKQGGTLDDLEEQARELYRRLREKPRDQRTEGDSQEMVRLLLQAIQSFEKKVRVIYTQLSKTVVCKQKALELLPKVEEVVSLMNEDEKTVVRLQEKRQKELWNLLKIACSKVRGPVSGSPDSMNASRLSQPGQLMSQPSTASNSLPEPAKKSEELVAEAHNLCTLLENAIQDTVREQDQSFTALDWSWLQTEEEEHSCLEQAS
Protocol: AlphaScreen assays were done using compounds dissolved in DMSO to a concentration of 20 mM. The compounds were diluted accordingly to the desired final concentrations in each sample well, using 1:3 serial dilution for a total of 8 concentration points. Plates were prepared such that each kinase reaction is 20 μl in 1× kinase buffer, 5% DMSO and 10 μM ATP. After incubation of the kinase reaction for 1 hour at room temperature, 5 μl of donor beads in stop buffer (50 mM EDTA in 1× kinase buffer) was added, the sample was mixed and incubated for 20 minutes at room temperature before adding 5 μl of acceptor beads in stop buffer. The samples were incubated for 60 minutes at room temperature and the signal per well was read on AlphaQuest reader.

Stk6 = target: T6, Stk6 (Homo sapiens, UniProt O14965); assay: Z'-Lyte FRET kinase assay (Invitrogen), Stk6; settings: read-out: IC50, activity toward kinase Stk6
T6 construct: purchased Invitrogen (Carlsbad, Calif.), screening service
T6 sequence (O14965 1-403): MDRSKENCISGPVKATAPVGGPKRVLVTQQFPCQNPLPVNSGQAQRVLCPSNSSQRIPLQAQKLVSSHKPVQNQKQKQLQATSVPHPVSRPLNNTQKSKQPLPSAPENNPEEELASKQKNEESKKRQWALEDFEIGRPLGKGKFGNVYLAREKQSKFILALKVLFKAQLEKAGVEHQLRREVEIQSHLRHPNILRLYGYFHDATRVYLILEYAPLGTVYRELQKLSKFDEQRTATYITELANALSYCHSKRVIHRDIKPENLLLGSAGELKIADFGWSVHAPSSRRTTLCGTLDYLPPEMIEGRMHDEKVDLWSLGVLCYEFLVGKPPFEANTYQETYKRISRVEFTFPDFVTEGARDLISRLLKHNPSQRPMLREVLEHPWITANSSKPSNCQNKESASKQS

Measured: pIC50

T1 sequence (P49137 whole entry): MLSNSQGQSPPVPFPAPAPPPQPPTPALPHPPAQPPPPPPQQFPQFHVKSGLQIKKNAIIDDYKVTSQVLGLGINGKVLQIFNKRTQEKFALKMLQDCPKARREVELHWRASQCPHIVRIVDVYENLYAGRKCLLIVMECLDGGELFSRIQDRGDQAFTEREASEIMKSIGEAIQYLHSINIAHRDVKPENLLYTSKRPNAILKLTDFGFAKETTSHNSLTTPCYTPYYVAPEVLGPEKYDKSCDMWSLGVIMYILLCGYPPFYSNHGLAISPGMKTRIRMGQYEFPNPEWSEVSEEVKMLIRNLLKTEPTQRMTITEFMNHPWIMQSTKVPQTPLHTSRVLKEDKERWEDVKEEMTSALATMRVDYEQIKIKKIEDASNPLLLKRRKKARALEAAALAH

OCc1cccc(-c2ccnc3[nH]cc(Sc4ccccn4)c23)c1 [Compound P-0057]
≥ 5.00: all assays above
